From US20250367166A1, “NEXT GENERATION DIPROVOCIMS THAT ACTIVATE THE INNATE AND ADAPTIVE IMMUNE RESPONSE” (The Scripps Research Institute, priority 2022, published 2025)
Where two headings read alike, the source gives them in different places. Each block holds one compound with its values, some of them ahead of it.

Tests used:
TLR1/TLR2 [1] = target: TLR1/TLR2 (Homo sapiens, UniProt O60603+Q15399); assay: TNF-α release from PMA-differentiated human THP-1 cells (ELISA); conditions: for Emax: THP-1, 4 h, read-out: Efficacy (magnitude) of response versus diprovocim-1 (100%), THP-1;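 on all read-outs here: cells exposed to graded compound concentrations for 4 h, TNF-α quantified in supernatant, LPS as positive and DMSO as negative control, values are duplicate means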
Sequence of TLR1/TLR2 (Homo sapiens, UniProt O60603+Q15399) (Q15399 25-786): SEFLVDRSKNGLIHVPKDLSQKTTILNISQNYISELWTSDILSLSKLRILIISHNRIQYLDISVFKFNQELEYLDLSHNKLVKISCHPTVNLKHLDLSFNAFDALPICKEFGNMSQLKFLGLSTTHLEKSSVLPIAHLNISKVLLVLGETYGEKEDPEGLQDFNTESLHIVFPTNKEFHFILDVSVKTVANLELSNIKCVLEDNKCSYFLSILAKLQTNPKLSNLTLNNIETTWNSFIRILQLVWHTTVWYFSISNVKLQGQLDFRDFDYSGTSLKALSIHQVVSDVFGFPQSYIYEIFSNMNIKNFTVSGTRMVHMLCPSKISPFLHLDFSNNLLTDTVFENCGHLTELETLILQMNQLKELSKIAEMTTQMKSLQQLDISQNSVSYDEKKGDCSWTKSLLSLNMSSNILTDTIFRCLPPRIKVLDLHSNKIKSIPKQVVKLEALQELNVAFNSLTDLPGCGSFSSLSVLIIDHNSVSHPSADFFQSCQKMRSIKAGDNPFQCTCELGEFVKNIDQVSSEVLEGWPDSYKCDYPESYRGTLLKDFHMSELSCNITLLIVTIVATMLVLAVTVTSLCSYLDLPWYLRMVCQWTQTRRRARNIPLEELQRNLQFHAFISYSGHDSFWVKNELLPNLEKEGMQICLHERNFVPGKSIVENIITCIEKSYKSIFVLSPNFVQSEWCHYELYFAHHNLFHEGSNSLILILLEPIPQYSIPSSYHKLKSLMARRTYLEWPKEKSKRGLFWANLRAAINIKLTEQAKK
Sequence of TLR1/TLR2 (Homo sapiens, UniProt O60603+Q15399) (O60603 21-784): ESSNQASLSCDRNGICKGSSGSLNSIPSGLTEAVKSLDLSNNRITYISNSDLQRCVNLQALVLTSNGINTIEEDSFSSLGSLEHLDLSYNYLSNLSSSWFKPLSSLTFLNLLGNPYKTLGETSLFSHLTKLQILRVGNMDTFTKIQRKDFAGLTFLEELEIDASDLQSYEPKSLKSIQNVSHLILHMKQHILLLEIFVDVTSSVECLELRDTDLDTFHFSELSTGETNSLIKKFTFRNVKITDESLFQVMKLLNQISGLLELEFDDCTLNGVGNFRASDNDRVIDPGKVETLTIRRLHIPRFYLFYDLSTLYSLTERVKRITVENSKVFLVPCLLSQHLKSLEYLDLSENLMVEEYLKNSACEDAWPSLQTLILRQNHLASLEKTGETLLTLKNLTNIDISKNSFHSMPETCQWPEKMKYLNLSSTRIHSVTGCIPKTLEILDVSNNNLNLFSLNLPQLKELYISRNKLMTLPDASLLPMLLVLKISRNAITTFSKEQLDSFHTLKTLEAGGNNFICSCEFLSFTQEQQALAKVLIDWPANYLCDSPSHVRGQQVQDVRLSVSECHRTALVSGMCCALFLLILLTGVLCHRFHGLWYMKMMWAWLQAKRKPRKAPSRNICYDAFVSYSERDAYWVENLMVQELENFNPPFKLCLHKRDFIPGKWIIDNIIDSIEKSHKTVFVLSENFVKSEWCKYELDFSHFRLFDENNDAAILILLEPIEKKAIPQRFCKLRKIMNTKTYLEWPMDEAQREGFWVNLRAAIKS

TLR1/TLR2 [2] = target: TLR1/TLR2 (Mus musculus, UniProt Q9EPQ1+Q9QUN7); assay: TNF-α release from thioglycolate-elicited mouse peritoneal macrophages (ELISA); conditions: for Emax: 4 h, read-out: Efficacy (magnitude) of response versus diprovocim-1 (100%), mouse macrophages
Sequence of TLR1/TLR2 (Mus musculus, UniProt Q9EPQ1+Q9QUN7) (Q9EPQ1 26-795): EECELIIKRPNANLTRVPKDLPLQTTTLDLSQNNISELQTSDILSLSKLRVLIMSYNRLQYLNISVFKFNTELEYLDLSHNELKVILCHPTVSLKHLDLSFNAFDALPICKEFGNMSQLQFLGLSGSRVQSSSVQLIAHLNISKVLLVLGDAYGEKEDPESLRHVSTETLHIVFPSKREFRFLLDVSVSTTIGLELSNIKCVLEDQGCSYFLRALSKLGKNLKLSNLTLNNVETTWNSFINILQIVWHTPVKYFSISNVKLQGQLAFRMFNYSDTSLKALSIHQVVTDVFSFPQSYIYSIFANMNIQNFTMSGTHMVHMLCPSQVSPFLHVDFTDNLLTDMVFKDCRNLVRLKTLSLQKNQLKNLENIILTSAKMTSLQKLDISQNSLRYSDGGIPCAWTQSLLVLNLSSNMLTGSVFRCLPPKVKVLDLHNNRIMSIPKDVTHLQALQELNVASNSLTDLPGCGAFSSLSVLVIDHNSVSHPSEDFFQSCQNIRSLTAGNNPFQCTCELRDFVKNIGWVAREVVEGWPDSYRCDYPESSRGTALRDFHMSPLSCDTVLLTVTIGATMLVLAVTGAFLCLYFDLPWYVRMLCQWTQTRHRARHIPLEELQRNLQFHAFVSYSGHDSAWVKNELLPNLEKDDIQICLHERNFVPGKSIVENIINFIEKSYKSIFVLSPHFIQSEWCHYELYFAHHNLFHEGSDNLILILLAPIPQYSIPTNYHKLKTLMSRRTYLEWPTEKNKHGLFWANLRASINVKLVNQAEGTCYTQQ
Sequence of TLR1/TLR2 (Mus musculus, UniProt Q9EPQ1+Q9QUN7) (Q9QUN7 25-784): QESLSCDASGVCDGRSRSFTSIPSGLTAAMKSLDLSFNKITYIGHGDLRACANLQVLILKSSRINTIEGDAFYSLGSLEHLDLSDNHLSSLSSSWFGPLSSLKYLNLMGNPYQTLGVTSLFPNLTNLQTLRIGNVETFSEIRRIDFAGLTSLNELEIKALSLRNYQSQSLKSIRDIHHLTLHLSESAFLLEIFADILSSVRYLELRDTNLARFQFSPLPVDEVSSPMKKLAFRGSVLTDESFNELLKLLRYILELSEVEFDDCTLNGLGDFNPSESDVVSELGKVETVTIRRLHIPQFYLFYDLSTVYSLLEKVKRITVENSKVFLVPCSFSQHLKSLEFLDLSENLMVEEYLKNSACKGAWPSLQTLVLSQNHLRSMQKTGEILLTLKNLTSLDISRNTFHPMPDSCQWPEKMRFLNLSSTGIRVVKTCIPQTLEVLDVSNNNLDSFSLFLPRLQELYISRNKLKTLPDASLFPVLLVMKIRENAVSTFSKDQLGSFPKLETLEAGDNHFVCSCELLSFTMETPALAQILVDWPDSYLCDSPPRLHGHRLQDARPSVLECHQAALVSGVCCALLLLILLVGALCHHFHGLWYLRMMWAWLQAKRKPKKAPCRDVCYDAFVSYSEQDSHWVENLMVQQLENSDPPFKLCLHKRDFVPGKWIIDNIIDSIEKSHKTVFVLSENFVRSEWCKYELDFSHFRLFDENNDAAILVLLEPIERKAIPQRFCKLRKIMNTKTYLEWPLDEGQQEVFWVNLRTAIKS

[3] = read-out: EC50 (nM) (THP-1): EC50 TNF-α release from human THP-1 cells, Table 3
[4] = read-out: EC50 (nM) (mouse): EC50 TNF-α release from mouse macrophages, Table 3
[5] = read-out: EC50 (nM) (THP-1): EC50 TNF-α release from human THP-1 cells, Table 5
[6] = read-out: EC50 (nM) (mouse): EC50 TNF-α release from mouse macrophages, Table 5
[7] = read-out: EC50 (nM) (THP-1): EC50 TNF-α release from human THP-1 cells, Table 1
[8] = read-out: EC50 (nM) (mouse): EC50 TNF-α release from mouse macrophages, Table 1
[9] = read-out: EC50 (nM) (THP-1): EC50 TNF-α release from human THP-1 cells, Table 2

- Emax (TLR1/TLR2 [1]): 40%
- EC50 (TLR1/TLR2 [1]; [3]): 0.59 nM
- Emax (TLR1/TLR2 [2]): 100%
- EC50 (TLR1/TLR2 [2]; [4]): 5.3 nM
SMILES: C#CCN(C)CC(=O)OCCCCCCCCCCCCNC(=O)[C@@H]1CN(C(=O)c2ccc(C(=O)N3C[C@@H](C(=O)N[C@H]4C[C@@H]4c4ccccc4)[C@H](C(=O)N[C@H]4C[C@@H]4c4ccccc4)C3)cc2)C[C@H]1C(=O)N[C@H]1C[C@@H]1c1ccccc1 [Compound 53, 12-((3S,4S)-1-(4-((3S,4S)-3,4-Bis(((1S,2R)-2-phenylcyclopropyl)carbamoyl)pyrrolidine-1-carbonyl)-benzoyl)-4-(((1S,2R)-2-phenylcyclopropyl)carbamoyl)-pyrrolidine-3-carboxamido)dodecyl 2-(methyl(prop-2-yn-1-yl)amino)acetate]

- reduction in activity relative to diprovocim-1 (TLR1/TLR2 [1]): two-fold reduction in activity
- Emax (TLR1/TLR2 [1]): 90%
- EC50 (TLR1/TLR2 [1]; read-out: EC50 (nM) (THP-1): EC50 TNF-α release from human THP-1 cells, Table 4): 0.26 nM
- Emax (TLR1/TLR2 [2]): 150%
- EC50 (TLR1/TLR2 [2]; read-out: EC50 (nM) (mouse): EC50 TNF-α release from mouse macrophages, Table 4): 3.4 nM
SMILES: CC(C)(C)OC(=O)NCCOCCOCCOCCOCCC(=O)OCCCCCCCCCCCCNC(=O)[C@@H]1CN(C(=O)c2ccc(C(=O)N3C[C@@H](C(=O)N[C@H]4C[C@@H]4c4ccccc4)[C@H](C(=O)N[C@H]4C[C@@H]4c4ccccc4)C3)cc2)C[C@H]1C(=O)N[C@H]1C[C@@H]1c1ccccc1 [Compound 55, 12-((3S,4S)-1-(4-((3S,4S)-3,4-Bis(((1S,2R)-2-phenyl-cyclopropyl)carbamoyl)pyrrolidine-1-carbonyl)-benzoyl)-4-(((1S,2R)-2-phenylcyclopropyl)carbamoyl)-pyrrolidine-3-carboxamido)-dodecyl 2,2-dimethyl-4-oxo-3,8,11,14,17-pentaoxa-5-azaicosan-20-oate]

- Emax (TLR1/TLR2 [1]): 100%
- EC50 (TLR1/TLR2 [1]; [3]): 0.7 nM
- Emax (TLR1/TLR2 [2]): 100%
- EC50 (TLR1/TLR2 [2]; [4]): 3.5 nM
SMILES: O=C(CNC(=O)C(F)(F)F)OCCCCCCCCCCCCNC(=O)[C@@H]1CN(C(=O)c2ccc(C(=O)N3C[C@@H](C(=O)N[C@H]4C[C@@H]4c4ccccc4)[C@H](C(=O)N[C@H]4C[C@@H]4c4ccccc4)C3)cc2)C[C@H]1C(=O)N[C@H]1C[C@@H]1c1ccccc1 [Compound 41, 12-((3S,4S)-1-(4-((3S,4S)-3,4-Bis(((1S,2R)-2-phenyl-cyclopropyl)carbamoyl)pyrrolidine-1-carbonyl)benzoyl)-4-(((1S,2R)-2-phenylcyclopropyl)-carbamoyl)pyrrolidine-3-carboxamido)-dodecyl 2-(2,2,2-trifluoroacetamido)acetate]

SMILES: Cc1ccc(S(=O)(=O)n2cnc(C[C@H](NC(=O)OC(C)(C)C)C(=O)OCCCCCCCCCCCCNC(=O)[C@@H]3CN(C(=O)c4ccc(C(=O)N5C[C@@H](C(=O)N[C@H]6C[C@@H]6c6ccccc6)[C@H](C(=O)N[C@H]6C[C@@H]6c6ccccc6)C5)cc4)C[C@H]3C(=O)N[C@H]3C[C@@H]3c3ccccc3)c2)cc1 [Compound 68, (S)-12-((3S,4S)-1-(4-((3S,4S)-3,4-Bis(((1S,2R)-2-phenylcyclopropyl)carbamoyl)pyrrolidine-1-carbonyl)benzoyl)-4-(((1S,2R)-2-phenylcyclopropyl)carbamoyl)pyrrolidine-3-carboxamido)-dodecyl 2-((tert-butoxy-carbonyl)amino)-3-(1-tosyl-1H-imidazol-4-yl)propanoate]
- Emax (TLR1/TLR2 [1]): 90%
- EC50 (TLR1/TLR2 [1]; [5]): 17 nM
- Emax (TLR1/TLR2 [2]): 110%
- EC50 (TLR1/TLR2 [2]; [6]): 35 nM

- EC50 (TLR1/TLR2 [1]): 0.05 to 0.2 nM
- Emax (TLR1/TLR2 [1]): 130%
- EC50 (TLR1/TLR2 [1]; [3]): 0.06 nM
- EC50 (TLR1/TLR2 [2]): 0.7 to 5 nM
- Emax (TLR1/TLR2 [2]): 220%
- EC50 (TLR1/TLR2 [2]; [4]): 5.3 nM
SMILES: O=C(COCc1ccccc1)OCCCCCCCCCCCCNC(=O)[C@@H]1CN(C(=O)c2ccc(C(=O)N3C[C@@H](C(=O)N[C@H]4C[C@@H]4c4ccccc4)[C@H](C(=O)N[C@H]4C[C@@H]4c4ccccc4)C3)cc2)C[C@H]1C(=O)N[C@H]1C[C@@H]1c1ccccc1 [Compound 46, 12-((3S,4S)-1-(4-((3S,4S)-3,4-Bis(((1S,2R)-2-phenylcyclopropyl)carbamoyl)pyrrolidine-1-carbonyl)benzoyl)-4-(((1S,2R)-2-phenylcyclopropyl)-carbamoyl)pyrrolidine-3-carboxamido)-dodecyl 2-(benzyloxy)acetate]

- EC50 (TLR1/TLR2 [1]; [7]): 0.5 nM
- EC50 (TLR1/TLR2 [2]; [8]): 1 nM
SMILES: O=C(NCCc1ccc(F)cc1)[C@@H]1CN(C(=O)c2ccc(C(=O)N3C[C@@H](C(=O)N[C@H]4C[C@@H]4c4ccccc4)[C@H](C(=O)N[C@H]4C[C@@H]4c4ccccc4)C3)cc2)C[C@H]1C(=O)N[C@H]1C[C@@H]1c1ccccc1 [Compound 25, (3S,4S)-1-(4-((3S,4S)-3,4-Bis(((1S,2R)-2-phenylcyclo-propyl)carbamoyl)pyrrolidine-1-carbonyl)-benzoyl)-N^3-(4-fluorophenethyl)-N^4-((1S,2R)-2-phenylcyclopropyl)-pyrrolidine-3,4-dicarboxamide]

- Emax (TLR1/TLR2 [1]): 100%
- EC50 (TLR1/TLR2 [1]; [7]): 3.4 nM
- Emax (TLR1/TLR2 [2]): 110%
- EC50 (TLR1/TLR2 [2]; [8]): 280 nM
SMILES: O=C(O)CCCCCCCCCCCNC(=O)[C@@H]1CN(C(=O)c2ccc(C(=O)N3C[C@@H](C(=O)N[C@H]4C[C@@H]4c4ccccc4)[C@H](C(=O)N[C@H]4C[C@@H]4c4ccccc4)C3)cc2)C[C@H]1C(=O)N[C@H]1C[C@@H]1c1ccccc1 [Compound 11, 12-((3S,4S)-1-(4-((3S,4S)-3,4-Bis(((1S,2R)-2-phenyl-cyclopropyl)carbamoyl)pyrrolidine-1-carbonyl)benzoyl)-4-(((1S,2R)-2-phenylcyclopropyl)carbamoyl)pyrrolidine-3-carboxamido)-dodecanoic acid]

SMILES: CC(C)(C)OC(=O)N[C@@H](CCCCNC(=O)OCC1c2ccccc2-c2ccccc21)C(=O)OCCCCCCCCCCCCNC(=O)[C@@H]1CN(C(=O)c2ccc(C(=O)N3C[C@@H](C(=O)N[C@H]4C[C@@H]4c4ccccc4)[C@H](C(=O)N[C@H]4C[C@@H]4c4ccccc4)C3)cc2)C[C@H]1C(=O)N[C@H]1C[C@@H]1c1ccccc1 [Compound 69, (S)-12-((3S,4S)-1-(4-((3S,4S)-3,4-Bis(((1S,2R)-2-phenylcyclopropyl)carbamoyl)pyrrolidine-1-carbonyl)-benzoyl)-4-(((1S,2R)-2-phenylcyclopropyl)carbamoyl)-pyrrolidine-3-carboxamido)-dodecyl 6-((((9H-fluoren-9-yl)methoxy)-carbonyl)amino)-2-((tert-butoxy-carbonyl)amino)-hexanoate]
- Emax (TLR1/TLR2 [1]): 100%
- EC50 (TLR1/TLR2 [1]; [5]): 280 nM
- Emax (TLR1/TLR2 [2]): 200%
- EC50 (TLR1/TLR2 [2]; [6]): 1150 nM

SMILES: CC(C)[C@H](NC(=O)OC(C)(C)C)C(=O)OCCCCCCCCCCCCNC(=O)[C@@H]1CN(C(=O)c2ccc(C(=O)N3C[C@@H](C(=O)N[C@H]4C[C@@H]4c4ccccc4)[C@H](C(=O)N[C@H]4C[C@@H]4c4ccccc4)C3)cc2)C[C@H]1C(=O)N[C@H]1C[C@@H]1c1ccccc1 [Compound 59, (S)-12-((3S,4S)-1-(4-((3S,4S)-3,4-Bis(((1S,2R)-2-phenylcyclopropyl)carbamoyl)pyrrolidine-1-carbonyl)-benzoyl)-4-(((1S,2R)-2-phenylcyclopropyl)carbamoyl)-pyrrolidine-3-carboxamido)-dodecyl 2-((tert-butoxycarbonyl)amino)-3-methylbutanoate]
- Emax (TLR1/TLR2 [1]): 100%
- EC50 (TLR1/TLR2 [1]; [5]): 1.8 nM
- Emax (TLR1/TLR2 [2]): 180%
- EC50 (TLR1/TLR2 [2]; [6]): 19 nM

SMILES: COC(=O)CCCCCCCCCNC(=O)[C@@H]1CN(C(=O)c2ccc(C(=O)N3C[C@@H](C(=O)N[C@H]4C[C@@H]4c4ccccc4)[C@H](C(=O)N[C@H]4C[C@@H]4c4ccccc4)C3)cc2)C[C@H]1C(=O)N[C@H]1C[C@@H]1c1ccccc1 [Compound 4, Methyl 10-((3S,4S)-1-(4-((3S,4S)-3,4-bis(((1S,2R)-2-phenylcyclopropyl)carbamoyl)pyrrolidine-1-carbonyl)-benzoyl)-4-(((1S,2R)-2-phenylcyclopropyl)-carbamoyl)-pyrrolidine-3-carboxamido)-decanoate]
- Emax (TLR1/TLR2 [1]): 100%

- Emax (TLR1/TLR2 [1]): 110%
- EC50 (TLR1/TLR2 [1]; [9]): 40 nM
SMILES: COC(=O)CCOCCOCCOCCNC(=O)[C@@H]1CN(C(=O)c2ccc(C(=O)N3C[C@@H](C(=O)N[C@H]4C[C@@H]4c4ccccc4)[C@H](C(=O)N[C@H]4C[C@@H]4c4ccccc4)C3)cc2)C[C@H]1C(=O)N[C@H]1C[C@@H]1c1ccccc1 [Compound 29, Methyl 1-((3S,4S)-1-(4-((3S,4S)-3,4-bis(((1S,2R)-2-phenylcyclopropyl)carbamoyl)pyrrolidine-1-carbonyl)benzoyl)-4-(((1S,2R)-2-phenylcyclopropyl)carbamoyl)-pyrrolidin-3-yl)-1-oxo-5,8,11-trioxa-2-azatetradecan-14-oate]

- EC50 (TLR1/TLR2 [1]; [9]): 3.1 nM
SMILES: CC(C)(C)OC(=O)CCOCCOCCOCCNC(=O)[C@@H]1CN(C(=O)c2ccc(C(=O)N3C[C@@H](C(=O)N[C@H]4C[C@@H]4c4ccccc4)[C@H](C(=O)N[C@H]4C[C@@H]4c4ccccc4)C3)cc2)C[C@H]1C(=O)N[C@H]1C[C@@H]1c1ccccc1 [Compound 28, tert-Butyl 1-((3S,4S)-1-(4-((3S,4S)-3,4-bis(((1S,2R)-2-phenylcyclopropyl)carbamoyl)pyrrolidine-1-carbonyl)-benzoyl)-4-(((1S,2R)-2-phenylcyclopropyl)carbamoyl)-pyrrolidin-3-yl)-1-oxo-5,8,11-trioxa-2-azatetradecan-14-oate]

- Emax (TLR1/TLR2 [2]): 100%
- EC50 (TLR1/TLR2 [2]; [8]): 1.4 nM
SMILES: COC(=O)CCCCCCCCCCCNC(=O)[C@@H]1CN(C(=O)c2ccc(C(=O)N3C[C@@H](C(=O)N[C@H]4C[C@@H]4c4ccccc4)[C@H](C(=O)N[C@H]4C[C@@H]4c4ccccc4)C3)cc2)C[C@H]1C(=O)N[C@H]1C[C@@H]1c1ccccc1 [Compound 3, Methyl 12-((3S,4S)-1-(4-((3S,4S)-3,4-bis(((1S,2R)-2-phenylcyclopropyl)carbamoyl)pyrrolidine-1-carbonyl)-benzoyl)-4-(((1S,2R)-2-phenylcyclopropyl)-carbamoyl)-pyrrolidine-3-carboxamido)-dodecanoate]
